Reference: paper PMC9855333, “1-(Arylsulfonyl-isoindol-2-yl)piperazines as 5-HT6R Antagonists: Mechanochemical Synthesis, In Vitro Pharmacological Properties and Glioprotective Activity” (Biomolecules, 2022)

Columns and labels:
human 5-HT7b receptor = target: T1, human 5-HT7b receptor (Homo sapiens, UniProt P34969); assay: Radioligand binding, [3H]-5-CT displacement, HEK-293 cells; conditions: mean ± SEM, three independent binding experiments; read-out: Ki [nM] 5-HT7R
T1 construct: expressed in transfected cells
Experimental: (§1) All experiments were performed in HEK-293 cells, which stably express the human 5-HT1A, 5-HT6, 5-HT7b, and D2L receptors, or using CHO-K1 cells expressing human serotonin 5-HT2A receptor, following the previously reported procedures. For displacement studies, the following radioligands (PerkinElmer, USA) at given concentrations were used at: 2.5 nM [^3H]-8-OH-DPAT (135.2 Ci/ mmol); 1 nM [^3H]-ketanserin (53.4 Ci/mmol); 2 nM [^3H]-LSD (83.6 Ci/mmol); 0.8 nM [^3H]-5-CT (39.2 Ci/mmol) or 2.5 nM [^3H]-raclopride (76.0 Ci/mmol) for 5-HT1A, 5-HT2A, 5-HT6, 5-HT7b and D2L receptors, respectively. All tested compounds were evaluated in triplicate at 7 concentrations (10^−10–10^−4 M). The inhibition constants (Ki) were calculated from the Cheng–Prusoff equation [25]. A detailed description is reported in the Supporting Information.
(§2) 1. Procedure for radioligand binding assay
(§3) All experiments were carried out according to the previously published procedures. HEK293 cells stably expressing human 5-HT1A, 5-HT6, 5-HT7b and D2L receptors (prepared with the use of Lipofectamine 2000) or CHO-K1 cells with plasmid containing the sequence coding for the human serotonin 5-HT2A receptor (Perkin Elmer) were maintained at 37 °C in a humidified atmosphere containing 5% CO2 and grown in Dulbecco’s Modified Eagle’s Medium containing 10% dialyzed fetal bovine serum and 500 μg/ml G418 sulfate. For membrane preparation, cells were cultured in 150 cm2 flasks, grown to 90% confluence, washed twice with pre-warmed to 37 °C phosphate buffered saline (PBS) and centrifuged (200 × g) in PBS containing 0.1 mM EDTA and 1 mM dithiothreitol. Prior to membrane preparation, pellets were stored at –80 °C. […]
(§4) The process of equilibration was terminated by rapid filtration through Unifilter plates with a 96-well cell harvester and radioactivity retained on the filters was quantified on a Microbeta plate reader (PerkinElmer, USA). […] The inhibition constants (Ki) were calculated from the Cheng-Prusoff equation [4].

human 5-HT1A receptor = target: T2, human 5-HT1A receptor (Homo sapiens, UniProt P08908); assay: Radioligand binding, [3H]-8-OH-DPAT displacement, HEK-293 cells; conditions: mean ± SEM, three independent binding experiments; read-out: Ki [nM] 5-HT1AR
T2 construct: expressed in transfected cells
T2 sequence (P08908 1-422): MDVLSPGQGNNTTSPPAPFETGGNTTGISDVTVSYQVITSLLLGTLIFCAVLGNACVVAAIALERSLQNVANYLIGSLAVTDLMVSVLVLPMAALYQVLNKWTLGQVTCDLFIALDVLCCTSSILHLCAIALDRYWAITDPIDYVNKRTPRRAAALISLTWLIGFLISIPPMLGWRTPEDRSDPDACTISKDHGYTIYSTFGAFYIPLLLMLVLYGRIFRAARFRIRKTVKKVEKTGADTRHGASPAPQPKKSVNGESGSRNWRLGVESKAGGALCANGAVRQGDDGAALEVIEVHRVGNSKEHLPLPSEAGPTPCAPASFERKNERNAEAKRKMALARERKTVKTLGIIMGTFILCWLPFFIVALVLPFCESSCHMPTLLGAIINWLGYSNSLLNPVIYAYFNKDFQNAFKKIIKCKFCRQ
Experimental: as §1, §2, §3, §4

T1 sequence (P34969 1-432 limits assumed): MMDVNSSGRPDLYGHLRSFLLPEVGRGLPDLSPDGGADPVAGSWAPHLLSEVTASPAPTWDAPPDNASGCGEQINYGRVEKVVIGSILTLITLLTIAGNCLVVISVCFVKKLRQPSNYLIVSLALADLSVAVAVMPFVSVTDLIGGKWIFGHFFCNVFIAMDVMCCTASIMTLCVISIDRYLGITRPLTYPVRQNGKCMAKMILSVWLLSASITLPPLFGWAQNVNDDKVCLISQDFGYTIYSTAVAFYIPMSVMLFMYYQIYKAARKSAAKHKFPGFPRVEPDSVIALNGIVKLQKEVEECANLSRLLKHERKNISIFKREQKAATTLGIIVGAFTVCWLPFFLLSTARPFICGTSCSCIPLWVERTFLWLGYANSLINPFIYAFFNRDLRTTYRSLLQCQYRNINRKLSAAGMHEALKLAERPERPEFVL

Work on `O=S(=O)(c1cccc(N2CCNCC2)c1)N1Cc2ccccc2C1` [3e, 2-{[3-(Piperazin-1-yl)phenyl]sulfonyl}isoindoline] yielded a Ki (human 5-HT7b receptor) of 4530 ± 327 nM and a Ki (human 5-HT1A receptor) of 951 ± 120 nM.
Work on `O=S(=O)(c1cccc(N2CCNCC2)c1)N1Cc2cccc(Cl)c2C1` [3f, 4-Chloro-2-{[3-(piperazin-1-yl)phenyl]sulfonyl}isoindoline] yielded a Ki (human 5-HT7b receptor) of 10700 ± 1030 nM and a Ki (human 5-HT1A receptor) of 385 ± 71 nM.
For `O=S(=O)(c1cccc(N2CCNCC2)c1)N1Cc2cccc(Br)c2C1` [3g, 4-Bromo-2-{[3-(piperazin-1-yl)phenyl]sulfonyl}isoindoline], the Ki (human 5-HT7b receptor) was 8800 ± 854 nM and the Ki (human 5-HT1A receptor) was 680 ± 33 nM.
